The nature of this data set: RP, Waters ACQUITY UPLC BEH C8, 100 × 2.1 mm, 1.7 µm, 55 °C, 0.6 mL/min, estimated dead time 0.37 min; A: 50% water + 25% acetonitrile + 25% isopropanol + 0.05% acetic acid + 20 µM phosphoric acid + 5 mM ammonium acetate; B: 50% acetonitrile + 50% isopropanol + 0.05% acetic acid + 5 mM ammonium acetate; gradient (min/%B) 0/1 0.1/1 2/30 11.5/90 12/99.9 12.5/99.9 12.55/65 12.65/30 12.75/1 12.95/1 13.25/1. As to conditions: stereoisomer not certain.
In the case of `CCCCCCCCCCCC=CC(O)C(COP(=O)([O-])OCC[N+](C)(C)C)NC(=O)CCCCCCCCCCCCCCCCCCCCCC` (configuration not stated) [SM(d16:1/23:0)], the LC retention time is 7.57 min.
Regarding `CCCCCCCCCCCC=CC(O)C(COP(=O)([O-])OCC[N+](C)(C)C)NC(=O)CCCCCCCCCCCCCCCCCCCCCCC` (configuration not stated) [SM(d16:1/24:0)], the LC retention time was 7.9 min.
Next, `CCCCCCCCCCCCCCCC(=O)NC(COP(=O)([O-])OCC[N+](C)(C)C)C(O)CCCCCCCCCCCCCCC` (configuration not stated) [SM(d18:0/16:0)]: 5.94 min; `CCCCCCCCCCCCCC=CC(O)C(COP(=O)([O-])OCC[N+](C)(C)C)NC(=O)CCCCCCCCCCCCCCC` (configuration not stated) [SM(d18:1/16:0)]: 5.68 min; `CCCCCCCCCCCCCC=CC(O)C(COP(=O)([O-])OCC[N+](C)(C)C)NC(=O)CCCCCCCCCCCCCCCCC` (configuration not stated) [SM(d18:1/18:0)]: 6.41 min.
In the case of `CCCCCCCCCCCCCC=CC(O)C(COP(=O)([O-])OCC[N+](C)(C)C)NC(=O)CCCCCCCCCCCCCCCCCCC` (configuration not stated) [SM(d18:1/20:0)], the LC retention time is 7.12 min.
In the case of `CCCCCCCCCCCCCC=CC(O)C(COP(=O)([O-])OCC[N+](C)(C)C)NC(=O)CCCCCCCCCCCCCCCCCCCCC` (configuration not stated) [SM(d18:1/22:0)] it was 7.79 min.
Turning to `CCCCCCCCCCCCCC=CC(O)C(COP(=O)([O-])OCC[N+](C)(C)C)NC(=O)CCCCCCCCCCCCCCCCCCCCCC` (configuration not stated) [SM(d18:1/23:0)], the LC retention time is 8.1 min.
`CCCCCCCCCCCCCC=CC(O)C(COP(=O)([O-])OCC[N+](C)(C)C)NC(=O)CCCCCCCCCCCCCCCCCCCCCCC` (configuration not stated) [SM(d18:1/24:0)]: the LC retention time is 8.4 min.
Next, `CCCCCCCCCCCCCCC=CC(O)C(COP(=O)([O-])OCC[N+](C)(C)C)NC(=O)CCCCCCCCCCCCCCC` (configuration not stated) [SM(d19:1/16:0)]: 5.95 min; `CCCCCCCCCCCCCCC=CC(O)C(COP(=O)([O-])OCC[N+](C)(C)C)NC(=O)CCCCCCCCCCCCCCCCC` (configuration not stated) [SM(d19:1/18:0)]: 6.66 min.
In the case of `CCCCCCCCCCCCCC=CC(O)C(N)COP(=O)(O)O` (configuration not stated) [Sphingosine-1-phosphate] it was 1.52 min; in that of `CCCCCCCCCCCCCCCCCC(=O)OC(CC(=O)[O-])C[N+](C)(C)C` (configuration not stated) [Stearoylcarnitine CAR(18:0)], 2.3 min.
Next, `CCCCCCCCCCCCCCCCCCCCCCCC(=O)OC(CC(=O)[O-])C[N+](C)(C)C` (configuration not stated) [Tetracosanoylcarnitine CAR(24:0)]: 4.34 min; `CCCCCCCCCCCCCC(=O)OC(CC(=O)[O-])C[N+](C)(C)C` (configuration not stated) [Tetradecanoylcarnitine CAR(14:0)]: 1.26 min.
For the compound `CC(C=CC=C(C)C=CC1=C(C)CC(O)CC1(C)C)=CC=CC=C(C)C=CC=C(C)C=CC1=C(C)CC(O)CC1(C)C` (configuration not stated) [Zeaxanthin], the LC retention time is 3.6 min.
Next, `CC(C)=CCCC(C)=CCCC(C)=CC=CC(C)=CC=CC=C(C)C=CC=C(C)CCC=C(C)CCC=C(C)C` [Zeta-carotene]: 8.28 min.

These data come from the RepoRT retention time repository.
